Reference: patent publication US20080319043A1, “3,6-Disubstituted Azabicyclo (3.1.0) Hexane Derivatives as Muscarinic Receptor Antagonists” (priority 2005, published 2008)

Columns and labels:
isolated rat bladder = assay: tissue or blood; details: read-out: pKb (converted)

SMILES	melting point [°C]	Kb (isolated rat bladder) [nM]
O=C(NCC1C2CNCC21)C(O)(c1ccccc1)c1cccs1 (centres unmarked) [Compound No. 18, N-(3-Azabicyclo[3.1.0]hex-6-ylmethyl)-2-hydroxy-2-phenyl-2-(2-thienyl)acetamide]	70 to 75	–
Cc1cccc(C(O)(C(=O)OCC2C3CNCC32)c2cccc(C)c2)c1 (centres unmarked) [Compound No. 27, 3-Azabicyclo[3.1.0]hex-6-ylmethyl hydroxy[bis(3-methylphenyl)]acetate]	105 to 108	–
Nc1cccc(CN2CC3C(CNC(=O)C(O)(c4ccccc4)C4CCCC4)C3C2)n1 (centres unmarked) [Compound No. 51, N-({3-[(6-Aminopyridin-2-yl)methyl]-3-azabicyclo[3.1.0]hex-6-yl}methyl)-2-cyclopentyl-2-hydroxy-2-phenylacetamide]	–	2.51 to 39.8
CC1C2C(CNC(=O)C(O)(c3ccccc3)C3CCCC3)C2CN1Cc1ccccc1 (centres unmarked) [Compound No. 60, N-[(3-Benzyl-2-methyl-3-azabicyclo[3.1.0]hex-6-yl)methyl]-2-cyclopentyl-2-hydroxy-2-phenylacetamide]	–	2.51 to 39.8
O=C(NCC1C2CN(Cc3ccc4c(c3)OCO4)CC12)C(O)(c1ccccc1)C1CCCCC1 (centres unmarked) [Compound No. 80, N-{[3-(1,3-Benzodioxol-5-ylmethyl)-3-azabicyclo[3.1.0]hex-6-yl]methyl}-2-cyclohexyl-2-hydroxy-2-phenylacetamide]	–	2.51 to 39.8
